Where two headings read alike, the source gives them in different places.
Columns and labels:
human tenascin-C [1] = molecular target: T1, human tenascin-C (Homo sapiens, UniProt P24821); assay: Competition filter binding assay against 99mTc-TTA1-MAG2; conditions: 2 nM human TN-C, 1 nM 99mTc-TTA1-MAG2, competed with unlabeled aptamer, 37° C., 15 min
Experimental: A competition filter binding assay was carried out in order to determine binding constants (EC50). Samples of 2 nM human TN-C were incubated with 1 nM ^99mTc-TTA1-MAG2 in TBSMC buffer (20 mM Tris, pH 7.4; 137 mM NaCl; 1 mM CaCl2; 1 mM MgCl2) and the binding competed with varying concentrations of unlabeled aptamer (see pipetting scheme in FIG. 9.1). Incubation was carried out at 37° C. for 15 min. Subsequently, the solutions were pipetted on a Minifold Device equipped with a supported nitrocellulose membrane and Whatman filter paper and were washed with buffer using vacuum. Residual radioactivity on the filter due to tenascin-C bound labeled aptamer was quantified using a Phosphorimager. EC50 values were calculated using GraphPadPrism 3.02 (San Diego, Calif., USA) plotting one-side competition non-linear regression curves.

human tenascin-C [2] = molecular target: T1, human tenascin-C; conditions: cited from earlier work

T1 sequence (P24821 23-2201): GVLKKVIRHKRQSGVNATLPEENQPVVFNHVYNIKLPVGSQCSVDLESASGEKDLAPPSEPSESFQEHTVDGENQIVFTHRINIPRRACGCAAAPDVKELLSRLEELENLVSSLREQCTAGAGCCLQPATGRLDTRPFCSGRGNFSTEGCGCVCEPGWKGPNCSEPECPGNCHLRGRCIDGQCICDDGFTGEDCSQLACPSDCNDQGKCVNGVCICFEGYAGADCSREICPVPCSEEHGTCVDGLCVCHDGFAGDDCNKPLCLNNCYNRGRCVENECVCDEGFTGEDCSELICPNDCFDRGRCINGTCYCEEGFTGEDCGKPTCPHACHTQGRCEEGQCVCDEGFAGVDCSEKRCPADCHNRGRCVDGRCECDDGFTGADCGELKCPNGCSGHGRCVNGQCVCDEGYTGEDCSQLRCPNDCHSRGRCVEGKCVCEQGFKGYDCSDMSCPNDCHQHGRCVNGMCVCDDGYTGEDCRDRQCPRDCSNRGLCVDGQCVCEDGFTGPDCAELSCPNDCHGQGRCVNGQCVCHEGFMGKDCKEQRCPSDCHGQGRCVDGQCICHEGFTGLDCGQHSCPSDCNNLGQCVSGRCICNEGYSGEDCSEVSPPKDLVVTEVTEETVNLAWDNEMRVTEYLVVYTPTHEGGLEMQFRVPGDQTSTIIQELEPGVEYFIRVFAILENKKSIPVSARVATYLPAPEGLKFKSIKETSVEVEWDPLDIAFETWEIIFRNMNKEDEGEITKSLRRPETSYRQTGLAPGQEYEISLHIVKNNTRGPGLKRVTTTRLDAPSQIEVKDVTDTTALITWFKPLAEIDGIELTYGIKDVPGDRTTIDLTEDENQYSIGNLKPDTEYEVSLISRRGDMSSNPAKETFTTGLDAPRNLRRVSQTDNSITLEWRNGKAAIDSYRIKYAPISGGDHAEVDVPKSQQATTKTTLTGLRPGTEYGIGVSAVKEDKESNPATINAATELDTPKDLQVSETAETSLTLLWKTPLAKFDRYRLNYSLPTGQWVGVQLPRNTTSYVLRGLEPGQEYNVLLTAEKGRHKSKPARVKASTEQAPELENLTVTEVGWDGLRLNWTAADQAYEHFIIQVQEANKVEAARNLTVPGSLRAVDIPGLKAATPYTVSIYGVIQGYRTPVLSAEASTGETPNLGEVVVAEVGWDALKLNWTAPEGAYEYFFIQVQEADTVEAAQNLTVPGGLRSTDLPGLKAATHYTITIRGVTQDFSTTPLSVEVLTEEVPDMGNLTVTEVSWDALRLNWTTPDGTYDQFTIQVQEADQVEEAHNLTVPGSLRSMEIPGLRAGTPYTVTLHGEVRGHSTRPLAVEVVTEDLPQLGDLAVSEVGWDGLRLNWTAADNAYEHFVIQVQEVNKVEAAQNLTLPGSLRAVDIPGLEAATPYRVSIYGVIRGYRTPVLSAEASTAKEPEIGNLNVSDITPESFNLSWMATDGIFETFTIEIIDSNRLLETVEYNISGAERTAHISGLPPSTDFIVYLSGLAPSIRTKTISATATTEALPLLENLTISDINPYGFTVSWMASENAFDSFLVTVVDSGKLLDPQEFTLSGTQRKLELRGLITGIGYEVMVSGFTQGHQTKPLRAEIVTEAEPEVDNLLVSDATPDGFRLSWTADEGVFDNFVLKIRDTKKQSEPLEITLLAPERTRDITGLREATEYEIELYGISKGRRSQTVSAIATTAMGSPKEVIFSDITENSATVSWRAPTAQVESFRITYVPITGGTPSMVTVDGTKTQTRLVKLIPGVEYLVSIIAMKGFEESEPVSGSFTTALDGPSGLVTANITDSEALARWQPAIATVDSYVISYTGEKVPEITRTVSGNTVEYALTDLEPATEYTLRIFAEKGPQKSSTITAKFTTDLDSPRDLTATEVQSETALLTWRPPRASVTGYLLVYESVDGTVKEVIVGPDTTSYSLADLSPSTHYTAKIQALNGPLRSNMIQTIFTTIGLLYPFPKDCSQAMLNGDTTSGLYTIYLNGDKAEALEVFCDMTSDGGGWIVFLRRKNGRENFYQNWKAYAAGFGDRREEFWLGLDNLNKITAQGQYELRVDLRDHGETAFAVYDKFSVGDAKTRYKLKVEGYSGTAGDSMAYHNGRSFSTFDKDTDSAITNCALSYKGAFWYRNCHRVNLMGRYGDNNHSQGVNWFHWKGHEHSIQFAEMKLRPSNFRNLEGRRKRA

Q: With “5′-mGmGmG mAmGG mAfCmG-(CH2CH2O)6-fCGfU fCGfC fCGfU mAmAfU mGmGmA fUmGfU fUfUfU mGfCfU fC(C6-NH2)CfC-3′-3′-T (CGUCGCCGUAAUGGAUGUUUUGCUC; 2'-OMe/2'-F, internal C6-amine, PEG spacer, 3' inverted dT, chemistry not fully specified) [TTA4]” as the substance, how does the EC50 (human tenascin-C [1]) read?
A: Its EC50 is 20 nM.

Q: With “5′-mGmGmG mAmGmG mAfCrG-(CH2OCH2)6-fCGfU fCGfC fCGfU mAmAfU mGmGmA fUmGfU fUfUfU mGmCmU mCmCmC-(CH2)6NH2-3′ (CGUCGCCGUAAUGGAUGUUUUGCUCCC; 2'-OMe/2'-F, PEG spacer, 3' aminohexyl, chemistry not fully specified) [TTA8]” as the substance, how does the EC50 (human tenascin-C [1]) read?
A: The EC50 was 14 nM.

Q: Which EC50 (human tenascin-C [1]) does the source give for “5′-LGLGLG LALGmG mAfCrG-(CH2OCH2)6-fCGfU fCGfC fCGfU mAmAfU mGmGmA fUmGfU fUfUfU mGLCLU LCLCLC-(CH2)6NH2-3′ (CGUCGCCGUAAUGGAUGUUUUG; LNA/2'-OMe/2'-F, PEG spacer, 3' aminohexyl, chemistry not fully specified) [TTA7]” here?
A: Its EC50 is 2 nM.

Q: With “5′-NH2-C6-O-PO2-O-GGG AGG ACG-(CH2CH2O)6-CGUCGCCGUAAUGGAUGUUUUGCUCCCUG-3′-3′-T (CGUCGCCGUAAUGGAUGUUUUGCUCCCUG; 5' aminohexyl, hexaethylene glycol spacer, 3'-3' inverted dT, chemistry not fully specified) [TTA1]” as the substance, how does the Kd (human tenascin-C [2]; final synthetic oligonucleotide, Hicke et al., read-out: KD) read?
A: Its Kd is 5 nM.

Q: And the Kd (human tenascin-C [2]; human tenascin-C, read-out: binding affinity KD)?
A: Its Kd is 5 nM.

Q: And the EC50 (human tenascin-C [1])?
A: Its EC50 is 6 nM.

Q: With “5′-NH2-C6-O-SPO-O-mGmGmG mAmGG mAfCmG-(CH2CH2O)6-fCGfU fCGfC fCGfU mAmAfU mGmGmA fUmGfU fUfUfU mGfCfU fCfCfC fUmG-3′-3′-T (CGUCGCCGUAAUGGAUGUUUUGCUCCCUG; 5' aminohexyl phosphorothioate, 2'-OMe/2'-F, PEG spacer, inverted dT, chemistry not fully specified) [TTA6]” as the substance, how does the EC50 (human tenascin-C [1]) read?
A: Its EC50 is 14 nM.

Q: For “5′-NH2-C6-O-PO2-O-mGmGmG mAmGG mAfCmG-(CH2CH2O)6-fCGfU fCGfC fCGfU mAmAfU mGmGmA fUmGfU fUfUfU mGfCfU fCfCfC UmG-3′-3′-T (CGUCGCCGUAAUGGAUGUUUUGCUCCCUG; 2'-OMe/2'-F, 5' aminohexyl, PEG spacer, 3' inverted dT, chemistry not fully specified) [TTA2]”, which EC50 (human tenascin-C [1]) is on record?
A: Its EC50 is 31 nM.

Q: With “5′-(aminomodifier C2 dT)-mA mGmGmG mAmGG mAfCmG-(CH2CH2O)6-fCGfU fCGfC fCGfU mAmAfU mGmGmA fUmGfU fUfUfU mGfCfU fCfCfC fUmG-3′-3′-T (chain 1 AGGGAGGACG; chain 2 CGUCGCCGUAAUGGAUGUUUUGCUCCCUG; 2'-OMe and 2'-F mix, some positions unassigned, 5' amino-C2 dT, hexaethylene glycol spacer, 3'-3' dT, further chemistry not given here) [TTA5]” as the substance, how does the EC50 (human tenascin-C [1]) read?
A: The EC50 was 39 nM.

Q: For “5′-NH2-C6-O-PO2-O-mGmGmG mAmGG mAfCmG-(CH2CH2O)6-fCGfU fCGfC fCGfU mAmAfU mGmGmA fUmGfU fUfUfU mGfCfU fCfCfC UG-3′-3′-T (CGUCGCCGUAAUGGAUGUUUUGCUCCCUG; 2'-OMe/2'-F, 5' aminohexyl, PEG spacer, 3' inverted dT, chemistry not fully specified) [TTA3]”, which EC50 (human tenascin-C [1]) is on record?
A: The EC50 was 19 nM.
